Laboratory results taken from PMC9440176, “Novel benzylidene benzofuranone analogues as potential anticancer agents: design, synthesis and in vitro evaluation based on CDK2 inhibition assays” (3 Biotech, 2022).

Legend:
CDK2/Cyclin A = CDK2/Cyclin A (Homo sapiens, UniProt P24941); assay: CDK2/cyclin A inhibitory assay, Z'-LYTE FRET kinase assay; type: biochemical; settings: concentration of 100 micro molar; 1000 ng/ml kinase, 1000 µM ATP
Source text: Z’-LYTE® technology involves homogeneous assay design based on FRET and is a universal platform for both screening as well as profiling protein kinases. The assay uses a peptide substrate labeled with two different fluorophores, coumarin donor and fluorescein acceptor on each end. These two fluorophores make up a FRET pair, which allows the transfer of energy when both are present on the same molecule. The initial kinase reaction transfers the ϒ-phosphate of ATP to a tyrosine or serine/threonine residue on the substrate. In a secondary reaction, referred to as the development reaction, a site-specific protease recognizes and cleaves only non-phosphorylated peptide, while phosphorylated substrate remains uncleaved. […] Upon excitation of Coumarin at 400 nm, the FRET signal is measured as a ratio between the Coumarin donor emission at 445–460 nm and the fluorescein acceptor emission at 520–535 nm(Lebakken et al. [2007]).
Initial ten-fold and two-fold dilutions of Kinase and ATP concentrations were used to choose the optimal Kinase and ATP concentration based on the % Phosphorylation.
The assay was carried out according to the kit instructions (384 well format). Briefly, 5X kinase buffer [250 mM HEPES (pH 7.5), 50 mM MgCl2, 5 mM EGTA, 0.05% BRIJ-35] was diluted to 1X using distilled water. The phosphor peptide positive control (Z’-LYTE® Tyr 4 phospho-peptide) and the non-phosphorylated negative control (Z’-LYTE® Tyr 4 peptide) were then diluted to 1:500 with 1× kinase buffer to 2 μM. […] Working development solution was then made by diluting 12 μL of the provided stock solution with 388 μL of the provided development buffer. Aliquots (20 μL) of each peptide mixture were then added to the wells of a Corning 3914 solid white microplate in replicates of 8. The development reaction was initiated by the addition of 10 μL of working development-solution to all the wells. Further, the plates were allowed to incubate at room temperature for 60 min. Reactions were then stopped by the addition of 10 μL of stop solution (Jia et al. [2008]).
Reactions were quantitated using a Tecan Robotic Microplate Reader. Reader control, blank subtraction, ratio metric calculations and finally graph plotting were carried out using Gen5™ Data Analysis Software.
The CDK2/Cyclin A assay was carried out as per the manufacturer’s instruction using suitable controls and standard.
The inhibitory assay was carried out using the stock of 10 mM in DMSO. Samples were further serially diluted to obtain concentrations of 100 μM. The concentrations were chosen based on the IC50 values obtained in the MTT assay. A total of 23 analogues were selected for the assay based on their antiproliferative activity. Further, selected compounds were screened and tested against the target CDK2/Cyclin A, and their % phosphorylation and % inhibition were recorded.

[1] = system: Cyclin A gene expression in HCT 116 cell lines; assay: Semi-quantitative RT-PCR gene expression of Cyclin A; type: cell-based, Human; settings: for CyclinA expression profile (in words): HCT 116; for Relative gene expression of Cyclin A: control 1.00
Experimental: HCT-116 cells were trypsinized and added to 1 ml TRIzol and vortexed. Samples were then allowed to stand for 5 min at room temperature. 0.2 ml of chloroform per 1 ml of TRIzol was added. The tube was later stoppered and shaken vigorously for 15 s and was allowed to stand at room temperature for 5 min. The resulting mixture was then centrifuged at 10,000×rpm for 15 min at […]. The upper aqueous phase was transferred to another clean tube followed by the addition of 0.5 ml of isopropanol per 1 ml of TRIzol. The contents were mixed gently by inverting the sample 5 times and incubated at room temperature for 5 min. Further, the tubes were centrifuged at 10,000×rpm for the next 10 min at […]. Later, the supernatant was discarded and the RNA pellet was washed by adding 1 ml of 70% ethanol. Further, the contents were mixed gently by inverting the sample for few times. It was again centrifuged for 5 min at 14,000×rpm at […]. In the later step, the supernatant was discarded by inverting the tube on a clean tissue paper. Later, the pellet was dried by incubating in a […] for 5 min at 55 °C. The pellet was then resuspended in 25 µL of DEPC (Diethyl pyro carbonate) treated water.
A semi-quantitative reverse transcriptase polymerase chain reaction (RT-PCR) was carried out using Techno Prime system to determine the levels of β-actin and CDK-2 and CyclinA mRNA expression. The cDNA was synthesized from 2 µg of RNA using the Verso cDNA synthesis kit (Thermo Fischer Scientific) with oligo dT (deoxy thymine) primer according to the manufacturer’s instructions. The reaction volume was set to 20 μL and the cDNA synthesis was performed at 42 °C for 60 min followed by RT inactivation at 85 °C for 5 min (Murakami [1996]).
The PCR mixture (final volume of 20 µL) contains 1 µL of cDNA, 10 µL of Red Taq Master Mix 2× (Ampliqon) and 1 µM of each complementary primer specific for CDK2 and CyclinA and β-actin (internal control) sequence. The samples are denatured at 95 °C for 5 min and amplified using 35 cycles of 95 °C for 30 s then again at 55 °C for 30 s and 72 °C for 1 min for β-actin; the […] annealing was finally set to 56 °C followed by the final elongation at 72 °C for 10 min. […] Ten microliters of the final amplification product are run on a 2% ethidium-stained agarose gel and photographed. Quantification of the results could be accomplished by measuring the optical density of the bands, using the computerized imaging program Image J. The values were normalized to β-actin intensity levels (Bookout and Mangelsdorf [2003]).

HCT-116 cells = assay: Apoptosis detection by propidium iodide / Annexin V-FITC; type: cell-based, Human; parameters: FACS analysis of apoptosis detection, Viable cells / FACS analysis of apoptosis detection, Early apoptotic / FACS analysis of apoptosis detection, Late apoptotic / FACS analysis of apoptosis detection, Necrotic: unit not given here
Experimental: The day before induction of apoptosis, 1 × 10^6cells per well were plated on a 6-well plate using respective media with 10% FBS and 1% PenStrep, incubated overnight at 37 °C at 5% CO2.The media was replaced with test solutions of different concentrations in the media containing 10% FBS. The treated cells were incubated for 24 h at normal culture conditions. The cells were further harvested and the well contents were completely transferred into the sterile FACS tubes. The cell contents were centrifuged at 2000 rpm for 5 min and the supernatant was discarded. After centrifugation, the cells were washed twice with cold PBS and then resuspended in 1 ml of binding buffer at a concentration of 1× 10^6 cells/ml. […] of the cell suspension (5× 10^5 cells) were then transferred into a fresh FACS tube (Vermes et al. [1995]). Further, cells were gently mixed with […] of propidium iodide and […] of Annexin V before being incubated for 20 minutes at room temperature in the dark. The cells were immediately analyzed by flow cytometer within a duration of an hour.

COc1ccc(/C=C2\Oc3c(c(OC)cc(OC)c3C3=CCN(C(C)C)CC3)C2=O)cc1OC [NISOA4]
% inhibition on CDK2/cyclin A (CDK2/Cyclin A): 42.787%
Band intensity Of PCR Amplicon Of genes, Cyclin A ([1]; 12.5 μM): 16,245.903
Normalized (Cyclin A to β-actin) ([1]; 12.5 μM): 0.64
CyclinA expression profile (in words) ([1]; 12.5 μM): very little or no reduction
Relative gene expression of Cyclin A ([1]; 12.5 μM): 1.00
Band intensity Of PCR Amplicon Of genes, Cyclin A ([1]; 25 μM): 10,798.368
Normalized (Cyclin A to β-actin) ([1]; 25 μM): 0.43
CyclinA expression profile (in words) ([1]; 25 μM): clear decrease
Relative gene expression of Cyclin A ([1]; 25 μM): 0.67
FACS analysis of apoptosis detection, Early apoptotic (HCT-116 cells; 12.5 µM): 6.36
FACS analysis of apoptosis detection, Late apoptotic (HCT-116 cells; 12.5 µM): 28.95
FACS analysis of apoptosis detection, Necrotic (HCT-116 cells; 12.5 µM): 9.61
FACS analysis of apoptosis detection, Viable cells (HCT-116 cells; 12.5 µM): 55.08
FACS analysis of apoptosis detection, Early apoptotic (HCT-116 cells; 25 µM): 0.17
FACS analysis of apoptosis detection, Late apoptotic (HCT-116 cells; 25 µM): 52.11
FACS analysis of apoptosis detection, Necrotic (HCT-116 cells; 25 µM): 24.06
FACS analysis of apoptosis detection, Viable cells (HCT-116 cells; 25 µM): 23.66
